Reference: patent US7884127B2, “Inhibitors of cyclin dependent kinases and their use” (Pirimal Life Sciences Ltd., priority 2002, dated 2011)
Structures can show the parent of a compound that is named as a salt.

Legend:
[1] = test system: U-937 Histiocytic lymphoma (monocytes); assay: Cytotoxicity assay (MTS), U-937; assay type: cell-based, human
Experimental: (§1) In Vitro Cell Proliferation and Cytotoxicity Assays:
(§2) Exponentially growing cultures of ten human cancerous cell lines (HL-60 Promyelocytic Leukemia, PC-3 Prostate, H-460 Lung, MDA-MB-231 Breast, MCF-7 Breast, HeLa Cervix, Colo-205 Colon, H9 Lymphoma (T Cells), U-937 Histiocytic Lymphoma (monocytes) and CaCO-2 Colon) obtained from NCCS, Pune, India were used. The in vitro cell proliferation (NCI, USA protocol) and cytotoxicity assays were carried out using standard procedures viz. ^3H-Thymidine uptake and MTS assay, respectively (For ^3H-Thymidine uptake: Cell Biology, A Laboratory Handbook, 1998, Vol 1 Ed Julio E. Celis, and For MTS assay: Promega Protocol, USA, 2000). In the ^3H-Thymidine uptake assay, cells were harvested after 72 hours onto GF/B unifilter plates (Packard, USA) using a Packard Filtermate Universal harvester and the plates were counted on a Packard TopCount 96-well liquid scintillation counter. The concentration of compound at which 50% of proliferative activity was inhibited (IC50) and the degree of toxicity of compound were calculated for representative compounds and their pharmaceutically acceptable salts described in the Examples.

[2] = test system: PC-3 Prostate; assay: Cytotoxicity assay (MTS), PC-3; assay type: cell-based, human
Experimental: as §1, §2

[3] = test system: HeLa Cervix; assay: Cytotoxicity assay (MTS), HeLa; assay type: cell-based, human
Experimental: as §1, §2

[4] = test system: H460 Lung; assay: Cytotoxicity assay (MTS), H460; assay type: cell-based, human
Experimental: as §1, §2

[5] = test system: PC-3 Prostate; assay: In vitro cell proliferation assay (3H-Thymidine uptake), PC-3; assay type: cell-based; conditions: Homo sapiens, 72 hours
Experimental: as §1, §2

[6] = test system: MDAMB-231 Breast; assay: Cytotoxicity assay (MTS), MDA-MB-231; assay type: cell-based, human
Experimental: as §1, §2

[7] = test system: H460 Lung; assay: In vitro cell proliferation assay (3H-Thymidine uptake), H460; assay type: cell-based; conditions: Homo sapiens, NCI-H460, 72 hours
Experimental: as §1, §2

[8] = test system: MCF-7 Breast; assay: Cytotoxicity assay (MTS), MCF-7; assay type: cell-based, human
Experimental: as §1, §2

[9] = test system: HeLa Cervix; assay: In vitro cell proliferation assay (3H-Thymidine uptake), HeLa; assay type: cell-based; conditions: Homo sapiens, 72 hours
Experimental: as §1, §2

[10] = test system: MCF-7 Breast; assay: In vitro cell proliferation assay (3H-Thymidine uptake), MCF-7; assay type: cell-based; conditions: Homo sapiens, MCF7, 72 hours
Experimental: as §1, §2

[11] = test system: MDAMB-231 Breast; assay: In vitro cell proliferation assay (3H-Thymidine uptake), MDA-MB-231; assay type: cell-based; conditions: Homo sapiens, 72 hours
Experimental: as §1, §2

[12] = test system: U-937 Histiocytic lymphoma (monocytes); assay: In vitro cell proliferation assay (3H-Thymidine uptake), U-937; assay type: cell-based; conditions: Homo sapiens, 72 hours
Experimental: as §1, §2

[13] = biological target: T1, human Cdk-2/E (Homo sapiens, UniProt P24941); assay: Cdk2/Cyclin E kinase assay; assay type: biochemical; conditions: phosphorylation of GST-Rb, 32P-ATP filter plate, 30 min at 30° C.
T1 construct: made in house; host or cells: Sf9 insect cells (baculovirus)
Source text: (§3) Cdk4/Cyclin D1 Kinase Assay and Cdk2/Cyclin E Kinase Assay
(§4) The assays measure phosphorylation of retinoblastoma protein (Rb) by Cdk4 or Cdk2 upon activation by cyclin D1 or cyclin E, respectively, through the transfer of (γ^32P)-phosphate from γ^32P-ATP in a 96-well filter plate assay.
Cdk4 or Cdk2 was co-expressed with cyclin D1 or cyclin E, respectively, by a baculovirus expression system in insect cells. For this, 1×10^7 Sf9 cells were coinfected with baculoviruses containing human Cdk-4 or 2 and cyclin D1 or E genes and after 72 hours cells were lysed in 500 μl of a lysis buffer (50 mM HEPES (pH 7.5), 10 mM MgCl2, 1 mM DTT, 5 μg/ml of aprotinin, 5 μg/ml of leupeptin, 0.1 mM NaF, 0.2 mM phenylmethylsulfonyl fluoride (PMSF), and sodium orthovanadate). Centrifuged lysate was purified on a GST-sepharose column. Purity of the proteins was checked by SDS-PAGE followed by western blots using specific antibodies (Santacruz Biotec, USA) to Cdk4 or Cdk2. […]
(§5) Quantitation was by scintillation detection of (^32P)-GST-Rb in 96-well filter plates using Top Count scintillation 96-well counter (Packard, USA).
The Cdk 4 or Cdk 2 enzyme assay was run in 96-well format using Millipore Multiscreen filtration plates. […] The plate was counted in a Packard Top Count Scintillation Counter for 10 min. […]

[14] = biological target: T2, human Cdk-4/D1 (Homo sapiens, UniProt P11802); assay: Cdk4/Cyclin D1 kinase assay; assay type: biochemical; conditions: for IC50: phosphorylation of GST-Rb, 32P-ATP filter plate, 30 min at 30° C.; for Ratio of IC50 Cdk2/E:Cdk4/D1: selectivity, Cdk2/E IC50 over Cdk4/D1 IC50
T2 construct: made in house; host or cells: Sf9 insect cells (baculovirus)
T2 sequence (P11802 whole entry): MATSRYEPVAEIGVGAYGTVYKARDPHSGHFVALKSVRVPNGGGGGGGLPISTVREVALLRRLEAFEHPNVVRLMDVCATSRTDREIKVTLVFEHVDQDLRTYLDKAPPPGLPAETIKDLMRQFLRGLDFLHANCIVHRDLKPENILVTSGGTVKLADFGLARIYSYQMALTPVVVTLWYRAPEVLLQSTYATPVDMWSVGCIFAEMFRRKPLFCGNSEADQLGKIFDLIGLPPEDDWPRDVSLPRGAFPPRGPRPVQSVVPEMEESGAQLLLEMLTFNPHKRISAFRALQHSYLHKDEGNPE
T2 sequence (P24385 whole entry partner): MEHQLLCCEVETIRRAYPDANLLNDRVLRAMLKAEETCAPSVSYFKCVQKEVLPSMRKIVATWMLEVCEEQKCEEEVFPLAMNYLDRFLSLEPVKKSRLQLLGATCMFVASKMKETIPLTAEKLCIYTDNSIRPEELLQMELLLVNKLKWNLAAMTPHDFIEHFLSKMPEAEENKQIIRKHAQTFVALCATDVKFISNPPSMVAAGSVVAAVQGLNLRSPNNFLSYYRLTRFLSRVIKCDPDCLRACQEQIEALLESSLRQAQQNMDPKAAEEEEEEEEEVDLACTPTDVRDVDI
Source text: as §3, §4
Cdk4 or Cdk2 was co-expressed with cyclin D1 or cyclin E, respectively, by a baculovirus expression system in insect cells. For this, 1×10^7 Sf9 cells were coinfected with baculoviruses containing human Cdk-4 or 2 and cyclin D1 or E genes and after 72 hours cells were lysed in 500 μl of a lysis buffer (50 mM HEPES (pH 7.5), 10 mM MgCl2, 1 mM DTT, 5 μg/ml of aprotinin, 5 μg/ml of leupeptin, 0.1 mM NaF, 0.2 mM phenylmethylsulfonyl fluoride (PMSF), and sodium orthovanadate). Centrifuged lysate was purified on a GST-sepharose column. Purity of the proteins was checked by SDS-PAGE followed by western blots using specific antibodies (Santacruz Biotec, USA) to Cdk4 or Cdk2.
GST-retinoblastoma (Rb) (aa 776-928) fusion protein is expressed in the bacteria E. coli and purified by GSH-Sepharose affinity chromatography. The GST-Rb bound to these beads served as the substrate in the assay.
as §5
The Cdk 4 or Cdk 2 enzyme assay was run in 96-well format using Millipore Multiscreen filtration plates. All assay steps took place in a single filter plate (Unifilter plates, Packard, USA). The filtration wells were pre-wet with kinase buffer (100 μl/well) and the solution was then removed by the application of vacuum, with the filter plate on a vacuum manifold and the vacuum on. 50 μl of GST-Rb bound to GSH-Sepharose beads in kinase buffer (0.5 μg GST-Rb/50 μl) was added to each well and vacuum was applied to removed the buffer. A further 25 μl of a reaction mix containing ATP (cold+hot) and phosphatase inhibitors diluted in kinase buffer were added to each well, followed by the addition of test compound (4× final concentration in kinase buffer) or kinase buffer (control) in an additional 25 μl volume. Finally 50 μl (100 ng) of human Cdk-4/D1 or Cdk-2/E enzyme in kinase buffer was added to each well to initiate the reaction. The reaction was incubated for 30 min at 30° C. After the reaction was complete, vacuum was applied and the plate was washed with the wash buffer (TNEN buffer) three times. The filter plate was air-dried and placed in a Multiscreen adapter plate. To each well, 30 μl Packard Microscint-O cocktail was added and the plate was covered with a Top-Seal A film. The plate was counted in a Packard Top Count Scintillation Counter for 10 min. […]

Compound | degree of toxicity U-937 Histiocytic lymphoma (monocytes) [1] | degree of toxicity PC-3 Prostate [2] | degree of toxicity HeLa Cervix [3] | degree of toxicity H460 Lung [4] | IC50 [5] | degree of toxicity MDAMB-231 Breast [6] | IC50 [7] | degree of toxicity MCF-7 Breast [8] | IC50 [9] | IC50 [10] | IC50 [11] | IC50 [12] | melting point | further results
CN1CC[C@H](c2c(O)cc(O)c3c(=O)cc(-c4ccccc4Cl)oc23)[C@H](O)C1 (relative stereo) [Flavopiridol, cis-{2-(2-Chloro-phenyl)-5,7-dihydroxy-8-(3-hydroxy-1-methyl-piperidin-4-yl)-chromen-4-one hydrochloride}, reference compound] | ++ (50-70% toxic) | ++ (50-70% toxic) | +++ (above 70% toxic) | + (30-50% toxic) | 50 to 100 nM | ++ (50-70% toxic) | 50 nM | + (30-50% toxic) | 100 to 500 nM | 500 nM | 100 nM | 100 nM | – | –
COc1ccc(Br)c(-c2cc(=O)c3c(O)cc(O)c([C@@H]4CCN(C)[C@H]4CO)c3o2)c1 (single isomer, unassigned) [Example 36 (Compound A), (+)-trans-2-(2-Bromo-5-methoxy-phenyl)-5,7-dihydroxy-8-(2-hydroxymethyl-1-methyl-pyrrolidin-3-yl)-chromen-4-one] | – | – | – | – | – | – | – | – | – | – | – | – | – | IC50 [13]: 6000 nM; IC50 [14]: 80 nM; Ratio of IC50 Cdk2/E:Cdk4/D1 [14]: 75.0
CN1CC[C@@H](c2c(O)cc(O)c3c(=O)cc(-c4c(F)cccc4F)oc23)[C@@H]1CO (single isomer, unassigned) [Example 80, (+)-trans-2-(2,6-Difluoro-phenyl)-5,7-dihydroxy-8-(2-hydroxymethyl-1-methyl-pyrrolidin-3-yl)-chromen-4-one] | – | – | – | – | – | – | – | – | – | – | – | – | 242 to 244 °C | IC50 [13]: 8750 nM; IC50 [14]: 280 nM; Ratio of IC50 Cdk2/E:Cdk4/D1 [14]: 31.2
CN1CC[C@@H](c2c(O)cc(O)c3c(=O)cc(-c4ccccc4Cl)oc23)[C@@H]1CO [Example 14A, (+)-trans-2-(2-Chloro-phenyl)-5,7-dihydroxy-8-(2-hydroxymethyl-1-methyl-pyrrolidin-3-yl)-chromen-4-one] | + (30-50% toxic) | ++ (50-70% toxic) | ++ (50-70% toxic) | NT (not toxic ≦30%) | 500 to 1000 nM | NT (not toxic ≦30%) | 5000 to 10000 nM | NT (not toxic ≦30%) | 100 to 500 nM | 500 to 1000 nM | 500 to 1000 nM | 100 to 1000 nM | – | –
CN1CC[C@@H](c2c(O)cc(O)c3c(=O)cc(-c4ccccc4Br)oc23)[C@@H]1CO [Example 17, (+)-trans-2-(2-Bromo-phenyl)-5,7-dihydroxy-8-(2-hydroxymethyl-1-methyl-pyrrolidin-3-yl)-chromen-4-one] | + (30-50% toxic) | NT (not toxic ≦30%) | + (30-50% toxic) | NT (not toxic ≦30%) | 1000 to 10000 nM | NT (not toxic ≦30%) | > 10000 nM | + (30-50% toxic) | 100 to 1000 nM | 500 to 1000 nM | 100 nM | 100 to 1000 nM | 235 to 237 °C | –
CN1CC[C@@H](c2c(O)cc(O)c3c(=O)cc(-c4ccc(Br)cc4Cl)oc23)[C@@H]1CO [Example 100, (+)-trans-2-(4-Bromo-2-chloro-phenyl)-5,7-dihydroxy-8-(2-hydroxymethyl-1-methyl-pyrrolidin-3-yl)-chromen-4-one] | – | – | – | – | – | – | – | – | – | – | – | – | 155 to 156 °C | –
CN1CC[C@@H](c2c(O)cc(O)c3c(=O)cc(-c4cccc(F)c4Cl)oc23)[C@@H]1CO [Example 134, (+)-trans-2-(2-Chloro-3-fluoro-phenyl)-5,7-dihydroxy-8-(2-hydroxymethyl-1-methyl-pyrrolidin-3-yl)-chromen-4-one] | – | – | – | – | – | – | – | – | – | – | – | – | 221 to 223 °C | –
CN1CC[C@@H](c2c(O)cc(O)c3c(=O)cc(-c4cccc(F)c4Br)oc23)[C@@H]1CO [Example 136, (+)-trans-2-(2-Bromo-3-fluoro-phenyl)-5,7-dihydroxy-8-(2-hydroxymethyl-1-methyl-pyrrolidin-3-yl)-chromen-4-one] | – | – | – | – | – | – | – | – | – | – | – | – | 237 to 239 °C | –
CN1CC[C@@H](c2c(O)cc(O)c3c(=O)cc(-c4cc(Cl)ccc4Br)oc23)[C@@H]1CO [Example 140, (+)-trans-2-(2-Bromo-5-chloro-phenyl)-5,7-dihydroxy-8-(2-hydroxymethyl-1-methyl-pyrrolidin-3-yl)-chromen-4-one] | – | – | – | – | – | – | – | – | – | – | – | – | 233 to 235 °C | –
